Measurements reported in patent publication EP0874631B1, “USE OF VALACICLOVIR FOR THE MANUFACTURE OF A MEDICAMENT FOR THE TREATMENT OF GENITAL HERPES BY A SINGLE DAILY APPLICATION” (priority 1996, dated 1997).
Structures can show the parent of a compound that is named as a salt. Where two headings read alike, the source gives them in different places.

Legend:
Assay type in all cases: in vivo, human
[1] = system: genital herpes simplex virus (HSV) infection; details: for recurrences experienced by placebo patients prevented or delayed / recurrences prevented or delayed: 52 weeks; for safety profiles (valaciclovir, aciclovir and placebo compared): in vivo
From the text: Objective: To determine the efficacy and safety of 4 doses of oral valaciclovir compared with aciclovir and placebo for the suppression of genital herpes in otherwise healthy patients.
Methods: This study was a multi-centre, international, six-arm, parallel group, randomised, double-blind comparison of the efficacy and safety of 4 doses of oral valaciclovir with oral aciclovir and placebo for the suppression of recurrent episodes of genital herpes simplex virus (HSV) infection in immunocompetent patients. A total of 1279 patients with a history of recurrent genital herpes were randomised into one of 6 treatment arms with a 2:2:2:2:2:1 treatment allocation and followed for 52 weeks. Patients visited the clinic at monthly intervals and on Days 1 and 5 of a genital HSV recurrence. Safety was assessed by adverse experience reporting at each visit and by clinical chemistry and haematology testing every 3 or 6 months respectively.
274 patients received 250 mg twice daily valaciclovir (reference example); 269 patients received 1000 mg once daily valaciclovir; 266 patients received 500 mg once daily valaciclovir; 269 patients received 250 mg once daily valaciclovir; 267 patients received 400 mg twice daily aciclovir; and 134 patients received placebo.

recurrent genital herpes = experiment: open-label 1-year study of suppressive therapy in patients previously on chronic acyclovir suppression
Protocol: OBJECTIVE: To document the number of genital herpes outbreaks during a 1-year period of suppressive therapy with valaciclovir hydrochloride in patients previously receiving chronic suppressive therapy with acyclovir. METHODS: A total of 127 patients (81 Males, 46 Females) from 11 study sites enrolled in this open-label study. […] Upon discontinuation of acyclovir, patients received 500 mg valaciclovir hydrochloride once daily. For any genital herpes recurrence, patients self-initiated treatment with valaciclovir hydrochloride 500 mg twice daily for 5 days, then resumed once daily therapy. Patients documented recurrences in a diary and returned to the clinic every three months for drug safety and recurrence evaluation.

[2] = system: frequently recurrent genital herpes; experiment: double blind, placebo controlled multicentre clinical trial of once daily suppressive therapy; details: 500 mg once daily
Protocol: In another study once daily valaciclovir (as the hydrochloride salt), was evaluated as suppressive therapy in a double blind, placebo controlled multicentre clinical trial in otherwise healthy immunocompetent patients with frequently recurrent genital herpes. A total of 382 patients with a history of >8 genital herpes recurrences per year were randomised (3:1) to treatment with once daily valaciclovir (500 mg) or placebo for 16 weeks. Patients experiencing a recurrence discontinued double blind therapy and received open label episodic valaciclovir (500 mg twice daily) for 5 days. They then continued on open label daily valaciclovir, as did those completing the 16 week double blind phase of study without evidence of a breakthrough recurrence, for a total of 48 weeks. Patients were assessed 4-weekly (double blind phase) and every 8 weeks thereafter. The primary efficacy end-point was time to first genital herpes recurrence.

[3] = 400 mg twice daily, entire tenth study year of acyclovir suppression
[4] = 250 mg twice daily (reference example)

| Structure (SMILES) | patients recurrence-free after 12 months ([1]; 400 mg twice daily) | recurrences experienced by placebo patients prevented or delayed ([1]; 400 mg twice daily) | safety profiles (valaciclovir, aciclovir and placebo compared) [1] | mean quarterly recurrence free rate (recurrent genital herpes; [3]) [%] | yearly recurrence free rate (recurrent genital herpes; [3]) [%] | patients remained recurrence-free during the study period ([1]; 250 mg once daily, 12 months) [%] | recurrences prevented or delayed ([1]; 250 mg once daily) [%] | patients recurrence-free after 12 months [1, 4] | recurrences experienced by placebo patients prevented or delayed [1, 4] | patients recurrence-free at 12 months ([1]; 500 mg once daily) | recurrences prevented or delayed ([1]; 500 mg once daily) [%] | patients recurrence-free after 12 months ([1]; 1000 mg once daily) | recurrences experienced by placebo patients prevented or delayed ([1]; 1000 mg once daily) | reduction in recurrence rate relative to placebo ([2]; 16 weeks, intent-to-treat population) [%] | tolerability ([2]; adverse events infrequent and generally mild) | total recurrence free rate (recurrent genital herpes; 500 mg once daily, after six months of suppressive therapy (93 of 126 patients)) [%] | patients remained free of recurrences (recurrent genital herpes; 500 mg once daily, after the first three months of suppressive therapy (102 of 126 patients)) [%] | patients remained free of recurrences (recurrent genital herpes; 500 mg once daily, following the next three months of suppressive therapy (101 of 119 patients)) [%] | tolerability (recurrent genital herpes; 500 mg once daily, for 6 months) |
| --- | --- | --- | --- | --- | --- | --- | --- | --- | --- | --- | --- | --- | --- | --- | --- | --- | --- | --- | --- |
| Nc1nc2c(ncn2COCCO)c(=O)[nH]1 [acyclovir, 9-[(2-hydroxyethoxy)methyl]guanine, reference compound] | approximately half | 78-79% | similar | 89 | 75 | – | – | – | – | – | – | – | – | – | – | – | – | – | – |
| CC(C)[C@H](N)C(=O)OCCOCn1cnc2c(=O)[nH]c(N)nc21 [valaciclovir, 2-[(2-amino-1,6-dihydro-6-oxo-9H-purin-9-yl)methoxy]ethyl L-valinate] | – | – | similar | – | – | 22 | 54 | approximately half | 78-79% | Forty | 71 | approximately half | 78-79% | 85 | well tolerated | – | – | – | – |
| CC(C)[C@H](N)C(=O)OCCOCn1cnc2c(=O)[nH]c(N)nc21 [valaciclovir hydrochloride, 2-[(2-amino-1,6-dihydro-6-oxo-9H-purin-9-yl)methoxy]ethyl-L-valinate hydrochloride] | – | – | – | – | – | – | – | – | – | – | – | – | – | – | – | 74 | 81 | 85 | well tolerated |
